In patent US4885299A, “2-(2,3-dihydro-2-oxo-3-benzofuranyl)acetic acids antihypoxic and nootropic effects having” (ADIR Et Cie, priority 1987, dated 1989):
Counter-ions that a name gives are not always drawn. Like-named read-outs stand apart in the source and are kept apart here.

Key:
[1] = test system: brain energy-rich compounds (ATP, ADP, AMP); experiment: Acute hypoxia in rats; protection of tissue energy-rich compounds in brain (ATP, energy content); format: in vivo, Male Fischer 344 rats (Charles River); settings: for % inhibition of the effects of hypoxia, ATP / % inhibition of the effects of hypoxia, EC (tissue energy content): 3% oxygen for 2 minutes; for antihypoxic effect / protection in words: 300 mg/kg
Method: (§1) The compounds of the present invention were tested in respect of their capacity to prolong the survival of cerebral tissue during acute hypoxia in mice, or to maintain the level of tissue energy-rich compounds in rats subjected to a fall in the oxygen supply [Pharmacology of Cerebral Ischemia, p. 334-339 (1968) Elsevier Science Publishers B.V., J. Krieglstein ed.]. […] Forsch. Drug. Res. (1986), 36 II No. 9, p. 1314-1320].
Whereas the control rats breath a gaseous mixture containing 21% of oxygen and 79% of nitrogen, the rats subjected to hypoxia breath a mixture of 3% oxygen and 97% nitrogen for 2 minutes.
At the end of the hypoxic period, the animals are rapidly sacrificed by total immersion in liquid nitrogen. The frozen brain is removed and the energy-rich compounds (ATP, ADP, AMP) are extracted and assayed by the luciferin luminescence method.
The tissue energy content (EC) is calculated according to ATKINSON's formula: [formula]

[2] = test system: Acute hypoxia in mice; survival of the brain; experiment: Acute hypoxia in mice (hypobaric); brain survival time to final respiratory gasp; format: in vivo, Male CD1 mice (Charles River)
Method: as §1
The survival of the brain is assessed by measuring the time at which the final respiratory gasp is observed.
The survival time of a treated batch is compared with that of a control batch receiving only the solvent.
The percentage increase in the survival time after the animals are treated with the compounds of the invention is shown in Table II.

[3] = Mus musculus, ip, 100 mg/kg I.P., 30 minutes before hypoxia, mice, read-out: Percentage increase in the survival time
[4] = 100 mg/kg I.P., 30 minutes before hypoxia, mice
[5] = Mus musculus, ip, 30 mg/kg I.P., 30 minutes before hypoxia, mice, read-out: Percentage increase in the survival time
[6] = Mus musculus, ip, read-out: Percentage increase in the survival time
[7] = 100 mg/kg I.P., listed as pyritinol

SMILES: O=C(O)CC1(c2ccccc2)C(=O)Oc2ccc(Cl)cc21 (stereo not shown) [Example 1, 2-(5-Chloro-2,3-dihydro-2-oxo-3-phenyl-3-benzofuranyl)acetic acid]
- % inhibition of the effects of hypoxia, ATP ([1]; 100 mg/kg I.P.): 54%
- % inhibition of the effects of hypoxia, EC (tissue energy content) ([1]; 100 mg/kg I.P.): 61.7%
- change in vivo at 100 mg/kg [2, 3]: 46%

SMILES: O=C(CC1(c2ccccc2)C(=O)Oc2ccc(Cl)cc21)N1CCN(c2ccc(C(F)(F)F)cn2)CC1 (stereo not shown) [Example 9, 2-(5-Chloro-2,3-dihydro-2-oxo-3-phenyl-3-benzofuranyl)-1-[4-(5-trifluoromethyl-2-pyridyl)piperazinyl]-1-oxoethane]
- % inhibition of the effects of hypoxia, ATP ([1]; 30 mg/kg I.P.): 65.6%
- % inhibition of the effects of hypoxia, EC (tissue energy content) ([1]; 30 mg/kg I.P.): 60.1%
- Percentage increase in the survival time ([2]; 3 mg/kg I.P., 30 minutes before hypoxia, mice): +65%
- Percentage increase in the survival time ([2]; 10 mg/kg I.P., 30 minutes before hypoxia, mice): +82%
- Percentage increase in the survival time ([2]; 30 mg/kg I.P., 30 minutes before hypoxia, mice): +77%
- Percentage increase in the survival time [2, 4]: greater than 180%
- Percentage increase in the survival time ([2]; 100 mg/kg I.P., 30 minutes before hypoxia, mice, listed as Ex. 9): +183%

SMILES: O=C(CC1(c2ccccc2)C(=O)Oc2ccc(Cl)cc21)N1CCN(Cc2ccc3c(c2)OCO3)CC1 (stereo not shown) [Example 16, 2-(5-Chloro-2,3-dihydro-2-oxo-3-phenyl-3-benzofuranyl)-1-[4-(3,4-methylenedioxybenzyl)piperazinyl]-1-oxoethane]
- % inhibition of the effects of hypoxia, ATP ([1]; 100 mg/kg I.P.): 77.5%
- % inhibition of the effects of hypoxia, EC (tissue energy content) ([1]; 100 mg/kg I.P.): 76.3%
- Percentage increase in the survival time ([2]; 100 mg/kg I.P., 30 minutes before hypoxia, mice, listed as Ex. 16): +100%
- change in vivo at 30 mg/kg [2, 5]: 64%
- change in vivo at 100 mg/kg [2, 3]: 100%

SMILES: O=C(CC1(c2ccccc2)C(=O)Oc2ccc(F)cc21)N1CCN(Cc2ccc3c(c2)OCO3)CC1 (stereo not shown) [Example 20, 2-(5-Fluoro-2,3-dihydro-2-oxo-3-phenyl-3-benzofuranyl)-1-[4-(3,4-methylenedioxybenzyl)piperazinyl]-1-oxoethane hydrochloride]
- % inhibition of the effects of hypoxia, ATP ([1]; 30 mg/kg I.P.): 56.9%
- % inhibition of the effects of hypoxia, EC (tissue energy content) ([1]; 30 mg/kg I.P.): 61.3%
- % inhibition of the effects of hypoxia, ATP ([1]; 100 mg/kg I.P.): 70.2%
- % inhibition of the effects of hypoxia, EC (tissue energy content) ([1]; 100 mg/kg I.P.): 71.5%
- Percentage increase in the survival time ([2]; 100 mg/kg I.P., 30 minutes before hypoxia, mice, listed as Ex. 20, hydrochloride): +100%
- change in vivo at 10 mg/kg ([2]; Mus musculus, ip, 10 mg/kg I.P., 30 minutes before hypoxia, mice, read-out: Percentage increase in the survival time): 52%
- change in vivo at 30 mg/kg [2, 5]: 104%
- change in vivo at 100 mg/kg [2, 3]: 100%
- change in vivo at 300 mg/kg ([2]; Mus musculus, ip, 300 mg/kg I.P., 30 minutes before hypoxia, mice, read-out: Percentage increase in the survival time): 128%

SMILES: Cc1cccc(CN2CCN(C(=O)CC3C(=O)Oc4ccccc43)CC2)c1 (stereo not shown) [Example 25, 2-(2,3-Dihydro-2-oxo-3-benzofuranyl)-1-[4-(3-methylbenzyl)piperazinyl]-1-oxoethane hydrochloride]
- % inhibition of the effects of hypoxia, ATP ([1]; 100 mg/kg I.P.): 50.5%
- % inhibition of the effects of hypoxia, EC (tissue energy content) ([1]; 100 mg/kg I.P.): 52.6%

SMILES: CN(C)CCOC(=O)COc1ccc(Cl)cc1 [Meclofenoxate, meclofenoxate, reference compound]
- % inhibition of the effects of hypoxia, ATP ([1]; 300 mg/kg I.P.): 59.7%
- % inhibition of the effects of hypoxia, EC (tissue energy content) ([1]; 300 mg/kg I.P.): 69.6%
- Percentage increase in the survival time [2, 4]: +22%
- change in vivo at 30 mg/kg [2, 6]: 4%
- change in vivo at 100 mg/kg [2, 6]: 22%
- change in vivo at 600 mg/kg [2, 6]: 190%

SMILES: NC(=O)CN1CCCC1=O [Piracetam, piracetam, reference compound]
- antihypoxic effect / protection in words [1]: only very little protection
- % inhibition of the effects of hypoxia, EC (tissue energy content) ([1]; 300 mg/kg I.P.): 1.6%
- Percentage increase in the survival time [2, 4]: +11%
- change in vivo at 100 mg/kg [2, 3]: 11%
- change in vivo at 1000 mg/kg ([2]; Mus musculus, ip, 1000 mg/kg I.P., 30 minutes before hypoxia, mice, read-out: Percentage increase in the survival time): 25%

SMILES: Cc1ncc(CSSCc2cnc(C)c(O)c2CO)c(CO)c1O [Pyritinol, pyritinol]
- % inhibition of the effects of hypoxia, ATP ([1]; 30 mg/kg I.P.): 11.1%
- % inhibition of the effects of hypoxia, EC (tissue energy content) ([1]; 30 mg/kg I.P.): 16.6%
- antihypoxic effect in words ([1]; 100 mg/kg): only a more modest effect
- % inhibition of the effects of hypoxia, ATP ([1]; 100 mg/kg I.P.): 23.3%
- % inhibition of the effects of hypoxia, EC (tissue energy content) ([1]; 100 mg/kg I.P.): 35.2%
- % inhibition of the effects of hypoxia, ATP [1, 7]: 23%
- % inhibition of the effects of hypoxia, EC (tissue energy content) [1, 7]: 35%
- antihypoxic effect / protection in words [1]: distinct antihypoxic effect
- % inhibition of the effects of hypoxia, ATP ([1]; 300 mg/kg I.P.): 90.4%
- % inhibition of the effects of hypoxia, EC (tissue energy content) ([1]; 300 mg/kg I.P.): 85.4%
- Percentage increase in the survival time [2, 4]: +27%
- significance of the protection (brain survival time) ([2]; 100 mg/kg, mice): significant
- change in vivo at 30 mg/kg [2, 5]: 13%
- change in vivo at 100 mg/kg [2, 3]: 27%
- change in vivo at 200 mg/kg ([2]; Mus musculus, ip, 200 mg/kg I.P., 30 minutes before hypoxia, mice, read-out: Percentage increase in the survival time): 77%
